Reference: ChEMBL document CHEMBL5728984, “Tricyclic inhibitors of poly(ADP-ribose)polymerase” (2022)

molecular target: Poly [ADP-ribose] polymerase 1 (Homo sapiens, UniProt P09874); assay: Enzyme Assay: Inhibition of PARP-1 enzymatic activities was measured using an HT Universal Colorimetric PARP Assay Kit (Trevigen, catalogue #4677-096-K) following the standard procedures. Serial dilutions of PARP compounds were added to appropriate wells. The compound was incubated with PARP enzyme at RT for 10 min, and the reaction was initiated by addition of the PARP substrate cocktail, Each concentration of compound was tested in triplicate wells. After 15 min reaction, the reaction was stopped, and the Strep-HRP was added into each well and incubated for 1 h at RT. After addition of TACS-Sapphire colorimetric substrate and incubated in dark for 15 min, the OD450 was read out with an EnVision instrument. IC50 values (the concentration at which 50% of the enzyme activity is inhibited) were calculated, which are determined over a range of different concentrations, normally from 10 uM to 0.1 nM.
Sequence (P09874 whole entry): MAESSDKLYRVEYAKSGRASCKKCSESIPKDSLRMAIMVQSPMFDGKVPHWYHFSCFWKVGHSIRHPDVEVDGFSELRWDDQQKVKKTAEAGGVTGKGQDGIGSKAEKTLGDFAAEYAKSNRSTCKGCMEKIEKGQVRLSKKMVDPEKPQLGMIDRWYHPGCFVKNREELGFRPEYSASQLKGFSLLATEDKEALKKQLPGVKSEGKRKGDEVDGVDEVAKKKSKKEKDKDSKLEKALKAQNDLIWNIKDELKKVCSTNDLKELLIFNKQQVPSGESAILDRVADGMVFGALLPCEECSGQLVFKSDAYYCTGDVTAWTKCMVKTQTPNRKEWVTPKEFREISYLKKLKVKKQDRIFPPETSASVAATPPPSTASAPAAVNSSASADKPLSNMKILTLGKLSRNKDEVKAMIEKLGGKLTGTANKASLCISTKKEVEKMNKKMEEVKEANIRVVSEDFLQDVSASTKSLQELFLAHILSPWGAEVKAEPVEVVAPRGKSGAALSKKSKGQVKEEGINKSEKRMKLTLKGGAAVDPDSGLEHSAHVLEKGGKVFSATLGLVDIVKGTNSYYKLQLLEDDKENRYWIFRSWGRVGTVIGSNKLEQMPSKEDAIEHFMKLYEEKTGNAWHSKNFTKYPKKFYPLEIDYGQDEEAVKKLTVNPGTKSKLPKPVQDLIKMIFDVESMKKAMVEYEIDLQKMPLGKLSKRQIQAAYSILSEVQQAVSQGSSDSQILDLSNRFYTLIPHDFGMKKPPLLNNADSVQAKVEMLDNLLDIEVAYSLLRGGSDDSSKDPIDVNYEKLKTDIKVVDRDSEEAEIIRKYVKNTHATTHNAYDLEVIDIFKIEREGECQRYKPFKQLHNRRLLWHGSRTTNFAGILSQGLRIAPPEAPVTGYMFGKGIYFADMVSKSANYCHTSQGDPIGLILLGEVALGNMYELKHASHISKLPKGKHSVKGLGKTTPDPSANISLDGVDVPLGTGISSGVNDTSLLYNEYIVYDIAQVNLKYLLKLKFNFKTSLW

SMILES | IC50 [nM]
O=c1[nH]nc(Cc2ccc(F)c(P3(=O)CCN(c4ncccn4)CC3)c2)c2ccccc12 | < 100
CCOP1(=O)CCN(C(=O)c2cc(Cc3n[nH]c(=O)c4ccccc34)ccc2F)CC1 | < 100
N#C/N=C(\N1CCC1)N1CCP(=O)(c2cc(Cc3n[nH]c(=O)c4ccccc34)ccc2F)CC1 | < 100

The remaining lines, values ahead:

IC50 [nM] | SMILES
< 100 | CC(C)(C)C(=O)N1CCP(=O)(c2cc(Cc3n[nH]c(=O)c4ccccc34)ccc2F)CC1
< 100 | CC(C)P1(=O)CCN(C(=O)c2cc(Cc3n[nH]c(=O)c4ccccc34)ccc2F)CC1
< 100 | CCP1(=O)CCN(C(=O)c2cc(Cc3n[nH]c(=O)c4ccccc34)ccc2F)CC1
< 100 | CC(C)CN1CCP(=O)(c2cc(Cc3n[nH]c(=O)c4ccccc34)ccc2F)CC1
